Format in all cases: in vivo, Drosophila melanogaster
Series [1] has as its system human BACE-1 mRNA. The series is described as follows: Real-time qRT-PCR, human BACE-1 mRNA in elav < APP/BACE-1 flies. The note with it: 100, 300, and 500 μM; 20-day-old males. On the procedure:
Real-time qRT-PCR with SYBR Green dye was performed to determine whether acacetin affected the expression levels of the human APP and BACE-1 mRNAs in the transgenic flies. The elav < APP/BACE-1 and elav < GFP flies were cultured from the egg stage in vials, as stated previously. The controls received 0.1% DMSO only. The total RNA was extracted from 30 heads (30 mg) of male elav < APP/BACE-1 and elav < GFP flies (20 days old) using the RNeasy Mini Kit (Qiagen, Hilden, Germany) according to the manufacturer’s instructions. The residual genomic DNA was removed using RQ1 RNase-Free DNase (Promega, Fitchburg, WI, USA), and 1 μg of the total RNA from each sample was used for complementary DNA (cDNA) synthesis with an oligo (dT) 12–18 primer (Invitrogen, Carlsbad, CA, USA) according to the protocol of the SuperScript III Reverse Transcriptase Kit. Real-time qRT-PCR was performed in 96-well plates using the StepOne Plus Real-Time PCR System (Applied Biosystems, Darmstadt, Germany). […] The mRNA expression levels of the target genes were normalized to the mRNA expression level of the housekeeping gene rp 49 that encodes the Drosophila ribosomal protein 49, and analyzed by the 2^–ΔΔCT method using the StepOne Software v2.3 and DataAssist Software (Applied Biosystems). The results are expressed as the means ± SEs of duplicate samples from three independent experiments.
In general terms: Real-time PCR tracks product formation cycle by cycle.

The subject of series [2] is elav < APP/BACE-1 flies. Nature of the series: Fly eclosion rate (pupation and emergence). The note with it: 100, 300, and 500 μM. Here is the method: The pupation and emergence rates were determined according to the method of Tamura et al.[78]. The elav < APP/BACE-1 flies were cultured from the egg stage in vials, as stated previously. Groups of 50 third instar larvae climbing on the wall were transferred into vials containing fresh media. The treated and control (0.1% DMSO only) flies were grown under the same conditions as those used for fly maintenance. The numbers of pupae and adults were determined. All treatments were repeated four times using 50 larvae per replicate.

The test system of series [3] is Aβ. The series is described as follows: Western blot, Aβ in heads of elav < APP/BACE-1 flies. The note with it: 20-day-old males. On the procedure: (§1) The elav < APP/BACE-1 flies were cultured from the egg stage, as described previously. The lysates were obtained from the heads of 50 male flies (20 days old) by placing the heads in 100 μL RIPA buffer (pH 8.0) containing a 1% protease inhibitor cocktail. The controls received 0.1% DMSO. The lysates were centrifuged at 14,000 rpm for 30 min at 4 °C. The protein content of the supernatant was determined using a Bradford Protein Assay kit (Sigma-Aldrich) and BSA was used as the standard. The total proteins (30 μg/sample for APP and BACE-1 detection; 70 μg/sample for Aβ detection) were mixed with an equal volume of 5× sample buffer[81] containing 40 mM of DL-dithiothreitol, boiled for 10 min, and then loaded onto 8, 10, and 12% sodium dodecyl sulfate-polyacrylamide gels using a Mini-Protean 3 electrophoresis cell (Bio-Rad, Hercules, CA, USA) for APP, APP-CTF (APP-αCTF and APP-βCTF) and AICD, BACE-1, and Aβ detection, respectively. After electrophoresis at 110 V in 2 h, the proteins from the gels were transferred onto a polyvinyl difluoride membrane (Pall Corporation, Pensacola, FL, USA) using an electroblotting apparatus. The membrane was then blocked with 5% skim milk (BD Difco, Flanklin Lakes, NJ, USA) in PBS containing 0.1% (v/v) Tween-20 (0.1% PBS-T) at room temperature for 1 h, and further incubated overnight at 4 °C with a 1:4,000 dilution of an anti-APP C-terminal antibody to detect the cleaved APP product, a 1:1,000 dilution of anti-BACE-1, and a 1:1,000 dilution of anti-amyloid (4G8). After washing with 0.1% PBS-T three times at 10 min intervals, the membranes were further incubated for 2 h with a goat anti-rabbit IgG H&L (HRP) secondary antibody at a1:4,000 dilution for APP and BACE-1 and a goat anti-mouse lgG-HRP at a 1:5,000 dilution for β-amyloid. […] The differences in protein expression were quantified using a Molecular Imager Gel Doc XR system (Bio-Rad, Hercules, CA, USA) and normalized to actin expression on the same membrane. The results are expressed as the means ± SEs of duplicate samples from three independent experiments.
Background: A western blot detects proteins with antibodies after separation by electrophoresis.

Series [4] has as its system elav < APP/BACE-1 flies. The series is described as follows: Climbing assay (negative geotaxis). The note with it: 100, 300, and 500 μM, males. Here is the method:
The climbing activity assay was performed, as described by Wang et al.[33] and Crowther et al.[34]. Groups of 20 male elav < APP/BACE-1 flies (1, 5, 10, and 15 days old), cultured in vials as stated previously, were separately placed in an empty vial conjoined with another vial on top, and manually tapped twice. After 20 s, the flies that climbed from the bottom and crossed the 9.5 cm line were counted, and the climbing index was determined as the number of flies that climbed to the top vial relative to the total number of test flies and expressed as a percentage. The controls received 0.1% DMSO. All trials were repeated five times using 20 males per replicate.

Series [5] has as its system APP intracellular domain (AICD). The series is described as follows: Western blot, AICD in heads of elav < APP/BACE-1 flies. The note with it: 20-day-old males. On the procedure: as §1
For series [6], the system named is GMR < APP/BACE-1 flies. Nature of the series: Congo red staining of amyloid plaques in compound eyes. The note with it: 5- and 15-day-old flies. On the procedure:
Congo red staining was performed to detect the amyloid plaques in the Drosophila AD model. The paraffin-embedded sections described above were deparaffinized and then stained using NovaUltra Special Stain Kits (IHC World, Woodstock, MD, USA) according to the manufacturer’s instructions. Finally, the sections were dehydrated and mounted with mounting medium. The images were observed and captured using an EZ4 HD stereo microscope.

The values below come from PMC4632086, “Effects and possible mechanisms of action of acacetin on the behavior and eye morphology of Drosophila models of Alzheimer’s disease” (Scientific Reports, 2015).

Regarding `COc1ccc(-c2cc(=O)c3c(O)cc(O)cc3o2)cc1` [acacetin], the “human BACE-1 mRNA levels, % of the control levels” value in series [1] was 82–89%. Besides, the pupation rate result in series [2] is “nearly normal pupation rates”. In series [2] (vehicle 76%, elav-Gal4/+ 99%, not significant vs vehicle), the emergence of flies is given as 82–86%. For the same molecule, the “Aβ levels, % of the controls” value is 71% in series [3] (100 μM), 72% in series [3] (300 μM) and 47% in series [3] (500 μM). The climbing index entry in series [4] (1 day postemergence, vehicle 47%) is on record as “approximately 68%”; in series [4] (5 days postemergence, vehicle 39%), 60–66%; in series [4] (10 days postemergence, vehicle 36%) it was 53–54%; in series [4] (15 days postemergence, vehicle 11%), 27–30%. Besides, the “AICD levels, % of the control levels” value in series [5] (100 μM) was 68%; in series [5] (300 μM), 27%; in series [5] (500 μM), 37%. Moreover, in series [6] (500 μM), the amyloid plaque deposits entry is reported as “a few amyloid plaque deposits were also detected”. In addition, the “number of amyloid deposits” value in series [6] (100 and 300 μM) is recorded as “significantly suppressed the number of amyloid deposits”.
